Read-outs that look alike come from different tables or passages of the source.
Target: T1, BACE1 (Homo sapiens, UniProt P56817)
T1 construct: purchased Invitrogen P2985
Assay: BACE1 fluorescence resonance energy transfer (FRET) based enzymatic inhibition assay
Type: biochemical
Conditions: for inhibition ratio: ligand concentration of 100 μM; for Inhibition ratio (100 μM): compound concentration 100 μM, Table 1; for inhibition at 100 µM: compound concentration 100 µM
Experimental: 3.3. Fluorescence Resonance Energy Transfer (FRET) Based Enzymatic Assay
The BACE1 fluorescence resonance energy transfer assay kit was purchased from Invitrogen (Carlsbad, CA, USA, cat. P2985). BACE1 activity assays were carried out following the manufacturer’s protocol. The enzyme, substrate, and compounds were diluted in a reaction buffer (50 mM sodium acetate, pH 4.5) to make 3× working solutions. The assay was carried out in a black 384-well microplate with a final volume of 30 μL which contains each 10 μL of 3× substrate, enzyme, and compound stocks, respectively. The final concentration of DMSO is less than 3% (v/v). The reaction mixture was incubated at 37 °C for 90 min with oscillation. Then, 10 μL of a stop solution (2.5 M sodium acetate) was added to stop the reaction. Finally, the fluorescent intensity of the enzymatic product was measured at Ex/Em = 535 nm/585 nm on a BioTek SYNERGY4 reader (BioTek, Winooski, VT, USA). Triplicate was run for each assay. IC50 values were calculated from the concentration–inhibition curves by nonlinear regression analysis. Eight concentrations were tested for each compound to produce the concentration–inhibition curve.

T1 sequence (P56817 46-501): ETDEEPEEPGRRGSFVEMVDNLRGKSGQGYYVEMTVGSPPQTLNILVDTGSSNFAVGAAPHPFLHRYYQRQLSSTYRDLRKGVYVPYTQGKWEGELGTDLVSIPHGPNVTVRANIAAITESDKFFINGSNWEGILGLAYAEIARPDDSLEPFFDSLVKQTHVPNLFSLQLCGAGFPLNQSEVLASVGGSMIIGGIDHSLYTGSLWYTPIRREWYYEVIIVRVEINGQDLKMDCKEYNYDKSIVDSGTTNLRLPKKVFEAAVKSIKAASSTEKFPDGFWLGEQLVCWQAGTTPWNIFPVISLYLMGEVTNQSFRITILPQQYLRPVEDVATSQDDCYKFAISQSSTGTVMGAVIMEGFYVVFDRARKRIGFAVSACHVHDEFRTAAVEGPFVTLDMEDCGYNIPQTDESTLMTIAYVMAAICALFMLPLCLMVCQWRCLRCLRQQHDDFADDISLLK

Inhibition ratio (100 μM)	inhibition at 100 µM (Table 2)	Compound	also measured
		N=C(N)NCCn1ccc2ccccc21 [Compound 4, 1-(2-(1H-indol-1-yl)ethyl)guanidine]	IC50: > 100 µM; inhibition ratio: about 42%
77.00%		N=C(N)NC(=O)Cn1ccc2ccccc21 [Compound 5, N-Carbamimidoyl-2-(1H-indol-1-yl)acetamide]	inhibition ratio: 77%
40.69%		N=C(NCc1ccccc1)NC(=O)Cn1ccc2ccccc21 [Compound 12]	
85.24%		N=C(NCc1cccc(I)c1)NC(=O)Cn1ccc2ccccc21 [Compound 13, 2-(1H-Indol-1-yl)-N-(N-(3-iodobenzyl)carbamimidoyl)acetamide]	
58.75%		COc1cccc(CNC(=N)NC(=O)Cn2ccc3ccccc32)c1 [Compound 14, 2-(1H-Indol-1-yl)-N-(N-(3-methoxybenzyl)carbamimidoyl)acetamide]	
52.38%		N=C(NCc1cc(F)cc(F)c1)NC(=O)Cn1ccc2ccccc21 [Compound 15, N-(N-(3,5-Difluorobenzyl)carbamimidoyl)-2-(1H-indol-1-yl)acetamide]	
66.51%		N=C(NCc1cccc(OC(F)(F)F)c1)NC(=O)Cn1ccc2ccccc21 [Compound 16, 2-(1H-Indol-1-yl)-N-(N-(3-(trifluoromethoxy)benzyl)carbamimidoyl)acetamide]	
100%		N=C(NCc1cc(Cl)cc(Cl)c1)NC(=O)Cn1ccc2ccccc21 [Compound 17, N-(N-(3,5-Dichlorobenzyl)carbamimidoyl)-2-(1H-indol-1-yl)acetamide]	IC50: 8.75 ± 1.07 µM
35.3%		CC(=O)Nc1ccc(CNC(=N)NC(=O)Cn2ccc3ccccc32)cc1 [Compound 18, N-(N-(4-Acetamidobenzyl)carbamimidoyl)-2-(1H-indol-1-yl)acetamide]	
100%	100%	CC(=O)Nc1c(Cl)cc(CNC(=N)NC(=O)Cn2ccc3ccccc32)cc1Cl [Compound 19, N-(N-(4-Acetamido-3,5-dichlorobenzyl)carbamimidoyl)-2-(1H-indol-1-yl)acetamide]	IC50: 1.01 ± 0.091 µM
46.8%		CCNc1c(Cl)cc(CNC(=N)NC(=O)Cn2ccc3ccccc32)cc1Cl [Compound 20, N-(N-(3,5-Dichloro-4-(ethylamino)benzyl)carbamimidoyl)-2-(1H-indol-1-yl)acetamide]	
92.2%		CC(C)C(=O)Nc1c(Cl)cc(CNC(=N)NC(=O)Cn2ccc3ccccc32)cc1Cl [Compound 21, N-(4-((3-(2-(1H-Indol-1-yl)acetyl)guanidino)methyl)-2,6-dichlorophenyl)isobutyramide]	IC50: 1.72 ± 0.21 µM
	109%	CC(=O)Nc1c(Cl)cc(CNC(=N)NC(=O)Cn2ccc3cc(Br)ccc32)cc1Cl [Compound 22, N-(N-(4-Acetamido-3,5-dichlorobenzyl)carbamimidoyl)-2-(5-bromo-1H-indol-1-yl)acetamide]	IC50 (Table 2): 0.106 ± 0.013 µM
	100%	CC(=O)Nc1c(Cl)cc(CNC(=N)NC(=O)Cn2ccc3ccc(Br)cc32)cc1Cl [Compound 23, N-(N-(4-Acetamido-3,5-dichlorobenzyl)carbamimidoyl)-2-(6-bromo-1H-indol-1-yl)acetamide]	IC50 (Table 2): 0.079 ± 0.008 µM
	99.5%	CC(=O)Nc1c(Cl)cc(CNC(=N)NC(=O)Cn2ccc3cc(C#N)ccc32)cc1Cl [Compound 24, N-(N-(4-Acetamido-3,5-dichlorobenzyl)carbamimidoyl)-2-(5-cyano-1H-indol-1-yl)acetamide]	IC50 (Table 2): 0.057 ± 0.004 µM
	103%	COc1ccc2ccn(CC(=O)NC(=N)NCc3cc(Cl)c(NC(C)=O)c(Cl)c3)c2c1 [Compound 27, N-(N-(4-Acetamido-3,5-dichlorobenzyl)carbamimidoyl)-2-(6-methoxy-1H-indol-1-yl)acetamide]	IC50 (Table 2): 0.224 ± 0.033 µM
	100%	CC(=O)Nc1c(Cl)cc(CNC(N)=NC(=O)Cn2ccc3ccc(CN(C)S(C)(=O)=O)cc32)cc1Cl [Compound 28]	IC50 (Table 2): 0.84 ± 0.101 µM

From article PMC6270065, “Virtual Screening and Structure-Based Discovery of Indole Acylguanidines as Potent β-secretase (BACE1) Inhibitors” (Molecules, 2013)
